Assay results as given in ChEMBL document CHEMBL4507264, “Data for DCP probe BAY-7598” (2021).

Tests used:
[1] = system: ALK tyrosine kinase receptor (Homo sapiens), Q9UM73 [C1156Y]; conditions: Compound concentration 1000.0 nM
[2] = target: Cytoplasmic tyrosine-protein kinase BMX (Homo sapiens) (UniProt P51813); conditions: Compound concentration 1000.0 nM
[3] = target: Cyclin-dependent kinase 13 (Homo sapiens) (UniProt Q14004); conditions: Compound concentration 1000.0 nM
[4] = target: Cyclin-dependent kinase 4 (Homo sapiens) (UniProt P11802); conditions: Compound concentration 1000.0 nM
Sequence of Cyclin-dependent kinase 4 (Homo sapiens) (P11802 whole entry, canonical isoform): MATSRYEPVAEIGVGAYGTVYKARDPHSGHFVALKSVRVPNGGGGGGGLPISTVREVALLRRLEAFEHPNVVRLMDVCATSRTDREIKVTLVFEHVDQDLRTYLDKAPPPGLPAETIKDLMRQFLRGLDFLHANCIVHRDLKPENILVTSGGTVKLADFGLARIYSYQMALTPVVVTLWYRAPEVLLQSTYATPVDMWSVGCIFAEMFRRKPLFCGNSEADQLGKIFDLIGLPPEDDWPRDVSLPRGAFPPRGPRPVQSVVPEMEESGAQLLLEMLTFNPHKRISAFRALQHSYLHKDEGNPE

[5] = target: Casein kinase I isoform delta (Homo sapiens) (UniProt P48730); conditions: Compound concentration 1000.0 nM
[6] = target: Casein kinase I isoform gamma-3 (Homo sapiens) (UniProt Q9Y6M4); conditions: Compound concentration 1000.0 nM
[7] = system: Epidermal growth factor receptor (Homo sapiens), P00533 [L861Q]; conditions: Compound concentration 1000.0 nM
[8] = target: Ephrin type-A receptor 7 (Homo sapiens) (UniProt Q15375); conditions: Compound concentration 1000.0 nM
[9] = target: Ephrin type-A receptor 8 (Homo sapiens) (UniProt P29322); conditions: Compound concentration 1000.0 nM
Sequence of Ephrin type-A receptor 8 (Homo sapiens) (P29322 whole entry): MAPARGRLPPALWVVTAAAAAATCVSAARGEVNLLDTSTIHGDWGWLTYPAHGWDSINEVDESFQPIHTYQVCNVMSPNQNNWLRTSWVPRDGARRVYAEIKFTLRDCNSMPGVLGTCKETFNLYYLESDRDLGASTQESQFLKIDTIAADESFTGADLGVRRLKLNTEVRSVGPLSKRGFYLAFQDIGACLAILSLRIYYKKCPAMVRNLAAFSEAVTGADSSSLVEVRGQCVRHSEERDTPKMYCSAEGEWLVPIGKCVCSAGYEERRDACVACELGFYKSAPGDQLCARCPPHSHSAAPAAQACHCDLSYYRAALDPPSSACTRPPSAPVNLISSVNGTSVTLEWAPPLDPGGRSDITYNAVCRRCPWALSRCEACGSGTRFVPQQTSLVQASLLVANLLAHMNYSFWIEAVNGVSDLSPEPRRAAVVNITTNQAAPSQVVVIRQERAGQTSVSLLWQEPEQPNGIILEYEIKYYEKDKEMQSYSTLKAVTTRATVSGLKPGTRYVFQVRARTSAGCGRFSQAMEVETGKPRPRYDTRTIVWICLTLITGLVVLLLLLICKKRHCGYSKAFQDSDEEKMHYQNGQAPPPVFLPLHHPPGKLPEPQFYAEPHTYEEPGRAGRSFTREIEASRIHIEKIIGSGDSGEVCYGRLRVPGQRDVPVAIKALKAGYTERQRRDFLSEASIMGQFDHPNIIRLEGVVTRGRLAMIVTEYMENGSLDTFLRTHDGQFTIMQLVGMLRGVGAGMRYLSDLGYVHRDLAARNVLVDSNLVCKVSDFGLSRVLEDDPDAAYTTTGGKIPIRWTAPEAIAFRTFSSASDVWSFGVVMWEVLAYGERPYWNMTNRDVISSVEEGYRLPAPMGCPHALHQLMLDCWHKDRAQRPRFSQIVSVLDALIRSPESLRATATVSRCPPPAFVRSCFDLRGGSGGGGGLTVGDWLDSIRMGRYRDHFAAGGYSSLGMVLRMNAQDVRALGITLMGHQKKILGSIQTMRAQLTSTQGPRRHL

[10] = system: Receptor-type tyrosine-protein kinase FLT3 (Homo sapiens), P36888 [UNDEFINED MUTATION]; conditions: Compound concentration 1000.0 nM
[11] = system: Receptor-type tyrosine-protein kinase FLT3 (Homo sapiens), P36888 [R834Q]; conditions: Compound concentration 1000.0 nM
[12] = target: Cyclin-G-associated kinase (Homo sapiens) (UniProt O14976); conditions: Compound concentration 1000.0 nM
Sequence of Cyclin-G-associated kinase (Homo sapiens) (O14976 whole entry): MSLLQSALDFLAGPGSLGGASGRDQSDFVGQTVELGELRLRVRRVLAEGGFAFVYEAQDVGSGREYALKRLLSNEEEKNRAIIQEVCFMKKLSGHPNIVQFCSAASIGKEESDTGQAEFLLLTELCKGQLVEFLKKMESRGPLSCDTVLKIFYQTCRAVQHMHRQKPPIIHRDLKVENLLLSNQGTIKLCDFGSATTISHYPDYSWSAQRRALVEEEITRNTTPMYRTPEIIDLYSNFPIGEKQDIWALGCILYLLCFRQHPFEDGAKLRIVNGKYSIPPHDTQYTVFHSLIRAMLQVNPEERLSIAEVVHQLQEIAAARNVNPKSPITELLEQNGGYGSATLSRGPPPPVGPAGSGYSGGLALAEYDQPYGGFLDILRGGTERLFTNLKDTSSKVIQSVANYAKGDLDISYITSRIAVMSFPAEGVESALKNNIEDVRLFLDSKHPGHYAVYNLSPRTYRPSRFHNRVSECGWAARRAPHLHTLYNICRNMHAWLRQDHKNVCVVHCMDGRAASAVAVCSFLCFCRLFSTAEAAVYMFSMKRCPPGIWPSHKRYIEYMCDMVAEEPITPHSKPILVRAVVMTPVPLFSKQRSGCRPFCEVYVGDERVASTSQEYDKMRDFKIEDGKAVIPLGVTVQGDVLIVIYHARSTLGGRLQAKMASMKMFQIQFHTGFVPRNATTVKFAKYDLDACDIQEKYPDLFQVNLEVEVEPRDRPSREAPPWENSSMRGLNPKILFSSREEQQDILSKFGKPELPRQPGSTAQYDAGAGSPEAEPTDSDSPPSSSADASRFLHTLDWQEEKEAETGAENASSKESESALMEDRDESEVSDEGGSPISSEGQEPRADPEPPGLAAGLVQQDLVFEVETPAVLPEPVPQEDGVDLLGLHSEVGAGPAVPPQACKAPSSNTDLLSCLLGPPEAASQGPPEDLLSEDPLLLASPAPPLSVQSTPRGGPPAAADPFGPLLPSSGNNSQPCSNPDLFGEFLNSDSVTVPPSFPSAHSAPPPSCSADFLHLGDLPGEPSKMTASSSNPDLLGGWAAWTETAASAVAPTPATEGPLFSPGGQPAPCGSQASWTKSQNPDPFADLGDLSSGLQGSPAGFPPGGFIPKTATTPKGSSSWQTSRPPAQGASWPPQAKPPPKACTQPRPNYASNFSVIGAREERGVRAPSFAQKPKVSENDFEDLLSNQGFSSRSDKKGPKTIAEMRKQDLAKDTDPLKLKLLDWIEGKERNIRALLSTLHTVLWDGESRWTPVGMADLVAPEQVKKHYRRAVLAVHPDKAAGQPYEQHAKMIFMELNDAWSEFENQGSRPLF

[13] = target: Insulin receptor (Homo sapiens) (UniProt P06213); conditions: Compound concentration 1000.0 nM
[14] = system: Mast/stem cell growth factor receptor Kit (Homo sapiens), P10721 [A829P]; conditions: Compound concentration 1000.0 nM
[15] = target: Mitogen-activated protein kinase kinase kinase 15 (Homo sapiens) (UniProt Q6ZN16); conditions: Compound concentration 1000.0 nM
[16] = target: Microtubule-associated serine/threonine-protein kinase 1 (Homo sapiens) (UniProt Q9Y2H9); conditions: Compound concentration 1000.0 nM
[17] = target: Dual specificity mitogen-activated protein kinase kinase 5 (Homo sapiens) (UniProt Q13163); conditions: Compound concentration 1000.0 nM
[18] = target: Dual specificity mitogen-activated protein kinase kinase 7 (Homo sapiens) (UniProt O14733); conditions: Compound concentration 1000.0 nM
Sequence of Dual specificity mitogen-activated protein kinase kinase 7 (Homo sapiens) (O14733 whole entry): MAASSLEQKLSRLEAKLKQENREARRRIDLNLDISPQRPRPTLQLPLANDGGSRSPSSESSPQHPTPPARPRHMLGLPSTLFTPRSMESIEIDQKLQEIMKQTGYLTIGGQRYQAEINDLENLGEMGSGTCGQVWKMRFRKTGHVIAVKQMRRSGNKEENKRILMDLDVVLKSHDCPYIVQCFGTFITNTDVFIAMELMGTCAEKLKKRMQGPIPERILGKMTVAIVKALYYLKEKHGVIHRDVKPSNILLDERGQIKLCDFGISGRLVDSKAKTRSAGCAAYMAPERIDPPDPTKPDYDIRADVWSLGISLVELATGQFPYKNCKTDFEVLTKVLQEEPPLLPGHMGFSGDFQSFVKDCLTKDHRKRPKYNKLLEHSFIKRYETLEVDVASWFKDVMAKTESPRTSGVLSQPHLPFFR

[19] = target: Macrophage-stimulating protein receptor (Homo sapiens) (UniProt Q04912); conditions: Compound concentration 1000.0 nM
[20] = target: Serine/threonine-protein kinase 3 (Homo sapiens) (UniProt Q13188); conditions: Compound concentration 1000.0 nM
[21] = target: Myosin light chain kinase, smooth muscle (Homo sapiens) (UniProt Q15746); conditions: Compound concentration 1000.0 nM
[22] = target: Serine/threonine-protein kinase PAK 5 (Homo sapiens) (UniProt Q9P286); conditions: Compound concentration 1000.0 nM
[23] = target: 3-phosphoinositide-dependent protein kinase 1 (Homo sapiens) (UniProt O15530); conditions: Compound concentration 1000.0 nM
[24] = target: Phosphatidylinositol 4,5-bisphosphate 3-kinase catalytic subunit alpha isoform (Homo sapiens) (UniProt P42336); conditions: Compound concentration 1000.0 nM
[25] = system: Phosphatidylinositol 4,5-bisphosphate 3-kinase catalytic subunit alpha isoform (Homo sapiens), P42336 [E545K]; conditions: Compound concentration 1000.0 nM
[26] = target: Phosphatidylinositol 4,5-bisphosphate 3-kinase catalytic subunit gamma isoform (Homo sapiens) (UniProt P48736); conditions: Compound concentration 1000.0 nM
[27] = target: Protein kinase C epsilon type (Homo sapiens) (UniProt Q02156); conditions: Compound concentration 1000.0 nM
[28] = target: cGMP-dependent protein kinase 2 (Homo sapiens) (UniProt Q13237); conditions: Compound concentration 1000.0 nM
[29] = target: Proto-oncogene tyrosine-protein kinase receptor Ret (Homo sapiens) (UniProt P07949); conditions: Compound concentration 1000.0 nM
[30] = system: Proto-oncogene tyrosine-protein kinase receptor Ret (Homo sapiens), P07949 [V804L]; conditions: Compound concentration 1000.0 nM
[31] = target: Serine/threonine-protein kinase RIO2 (Homo sapiens) (UniProt Q9BVS4); conditions: Compound concentration 1000.0 nM
Sequence of Serine/threonine-protein kinase RIO2 (Homo sapiens) (Q9BVS4 whole entry, looked up): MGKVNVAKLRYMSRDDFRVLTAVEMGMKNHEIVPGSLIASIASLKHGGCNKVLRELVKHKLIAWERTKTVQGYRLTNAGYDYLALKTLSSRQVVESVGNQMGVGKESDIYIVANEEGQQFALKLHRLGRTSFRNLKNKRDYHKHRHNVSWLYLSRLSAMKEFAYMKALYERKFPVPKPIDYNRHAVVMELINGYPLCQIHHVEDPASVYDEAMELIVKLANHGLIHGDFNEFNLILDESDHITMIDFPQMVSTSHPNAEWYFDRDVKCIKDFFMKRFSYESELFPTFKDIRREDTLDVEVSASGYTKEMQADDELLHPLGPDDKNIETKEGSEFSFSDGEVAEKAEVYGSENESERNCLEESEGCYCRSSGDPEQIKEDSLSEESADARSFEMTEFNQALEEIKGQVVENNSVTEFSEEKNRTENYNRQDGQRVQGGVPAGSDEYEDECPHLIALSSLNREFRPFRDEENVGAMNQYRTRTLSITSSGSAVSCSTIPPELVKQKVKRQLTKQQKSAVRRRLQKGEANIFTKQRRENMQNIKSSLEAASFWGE

[32] = target: Ribosomal protein S6 kinase alpha-2 (Homo sapiens) (UniProt Q15349); conditions: Compound concentration 1000.0 nM
[33] = target: NUAK family SNF1-like kinase 2 (Homo sapiens) (UniProt Q9H093); conditions: Compound concentration 1000.0 nM
[34] = target: Serine/threonine-protein kinase 35 (Homo sapiens) (UniProt Q8TDR2); conditions: Compound concentration 1000.0 nM
[35] = target: Serine/threonine-protein kinase TAO3 (Homo sapiens) (UniProt Q9H2K8); conditions: Compound concentration 1000.0 nM
[36] = target: Serine/threonine-protein kinase TBK1 (Homo sapiens) (UniProt Q9UHD2); conditions: Compound concentration 1000.0 nM
[37] = target: Dual specificity testis-specific protein kinase 1 (Homo sapiens) (UniProt Q15569); conditions: Compound concentration 1000.0 nM
[38] = target: Activated CDC42 kinase 1 (Homo sapiens) (UniProt Q07912); conditions: Compound concentration 1000.0 nM
[39] = target: High affinity nerve growth factor receptor (Homo sapiens) (UniProt P04629); conditions: Compound concentration 1000.0 nM
[40] = target: Serine/threonine-protein kinase ULK1 (Homo sapiens) (UniProt O75385); conditions: Compound concentration 1000.0 nM
[41] = target: Tyrosine-protein kinase ZAP-70 (Homo sapiens) (UniProt P43403); conditions: Compound concentration 1000.0 nM
Sequence of Tyrosine-protein kinase ZAP-70 (Homo sapiens) (P43403 whole entry): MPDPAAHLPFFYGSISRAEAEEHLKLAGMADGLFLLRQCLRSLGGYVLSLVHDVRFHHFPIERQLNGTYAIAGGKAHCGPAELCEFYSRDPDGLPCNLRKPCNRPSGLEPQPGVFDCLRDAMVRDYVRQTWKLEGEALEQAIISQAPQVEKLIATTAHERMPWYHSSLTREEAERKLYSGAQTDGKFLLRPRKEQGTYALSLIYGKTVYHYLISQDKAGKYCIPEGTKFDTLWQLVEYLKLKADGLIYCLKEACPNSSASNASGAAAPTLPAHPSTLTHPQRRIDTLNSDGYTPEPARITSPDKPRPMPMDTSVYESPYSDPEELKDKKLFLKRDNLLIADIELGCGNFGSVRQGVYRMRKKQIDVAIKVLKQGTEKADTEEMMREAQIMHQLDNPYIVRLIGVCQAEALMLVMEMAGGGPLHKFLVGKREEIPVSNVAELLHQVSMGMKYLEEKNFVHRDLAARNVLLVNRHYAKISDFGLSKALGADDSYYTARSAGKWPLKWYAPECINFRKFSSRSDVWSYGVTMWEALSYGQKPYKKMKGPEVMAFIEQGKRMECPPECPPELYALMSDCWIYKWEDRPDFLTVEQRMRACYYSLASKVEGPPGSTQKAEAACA

[42] = target: 5-hydroxytryptamine receptor 1D (Homo sapiens) (UniProt P28221); conditions: Compound concentration 10.0 uM
[43] = target: 5-hydroxytryptamine receptor 5A (Homo sapiens) (UniProt P47898); conditions: Compound concentration 10.0 uM
[44] = target: Delta-type opioid receptor (Homo sapiens) (UniProt P41143); conditions: Compound concentration 10.0 uM
[45] = target: Beta-2 adrenergic receptor (Homo sapiens) (UniProt P07550); conditions: Compound concentration 10.0 uM

Sequence of Cytoplasmic tyrosine-protein kinase BMX (Homo sapiens) (P51813 whole entry): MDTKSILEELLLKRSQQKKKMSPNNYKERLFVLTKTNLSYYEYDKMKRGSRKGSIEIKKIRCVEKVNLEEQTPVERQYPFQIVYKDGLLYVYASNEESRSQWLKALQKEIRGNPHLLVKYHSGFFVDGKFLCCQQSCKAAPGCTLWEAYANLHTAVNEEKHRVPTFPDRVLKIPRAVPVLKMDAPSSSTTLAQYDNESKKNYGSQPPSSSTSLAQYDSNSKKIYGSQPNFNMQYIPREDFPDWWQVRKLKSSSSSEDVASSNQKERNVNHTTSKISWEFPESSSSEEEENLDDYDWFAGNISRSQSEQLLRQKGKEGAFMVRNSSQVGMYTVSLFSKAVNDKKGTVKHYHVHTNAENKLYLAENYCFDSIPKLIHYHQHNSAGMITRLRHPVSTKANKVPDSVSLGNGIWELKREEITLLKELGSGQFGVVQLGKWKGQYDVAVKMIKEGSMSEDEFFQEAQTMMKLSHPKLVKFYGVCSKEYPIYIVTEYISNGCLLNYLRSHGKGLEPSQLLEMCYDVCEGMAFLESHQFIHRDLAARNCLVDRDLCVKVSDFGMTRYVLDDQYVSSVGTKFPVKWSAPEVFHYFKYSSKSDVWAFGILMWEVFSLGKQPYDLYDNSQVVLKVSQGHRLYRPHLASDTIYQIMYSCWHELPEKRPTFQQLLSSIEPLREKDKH

O=C(O)[C@H]1[C@H](Cn2nnc3ccccc3c2=O)CC[C@@H]1C(=O)c1ccc(OCCC2CCOCC2)cc1 [BAY-7598]
inactive: residual activity [1] 100% | residual activity [2] 92% | residual activity [3] 93% | residual activity [4] 89% | residual activity [5] 100% | residual activity [6] 100% | residual activity [7] 53% | residual activity [8] 100% | residual activity [9] 100% | residual activity [10] 87% | residual activity [11] 96% | residual activity [12] 100% | residual activity [13] 78% | residual activity [14] 84% | residual activity [15] 64% | residual activity [16] 98% | residual activity [17] 100% | residual activity [18] 96% | residual activity [19] 96% | residual activity [20] 91% | residual activity [21] 74% | residual activity [22] 98% | residual activity [23] 74% | residual activity [24] 100% | residual activity [25] 72% | residual activity [26] 90% | residual activity [27] 100% | residual activity [28] 100% | residual activity [29] 82% | residual activity [30] 77% | residual activity [31] 100% | residual activity [32] 78% | residual activity [33] 100% | residual activity [34] 100% | residual activity [35] 100% | residual activity [36] 94% | residual activity [37] 100% | residual activity [38] 100% | residual activity [39] 88% | residual activity [40] 95% | residual activity [41] 100% | inhibition [42] 4.82% | inhibition [43] 6.91% | inhibition [44] 1.43% | inhibition [45] 8.44%

O=C(O)[C@@H]1[C@@H](Cn2nnc3ccccc3c2=O)CC[C@H]1C(=O)c1ccc(OCCC2CCOCC2)cc1 [BAY-694]
inactive: residual activity [1] 100% | residual activity [2] 100% | residual activity [3] 92% | residual activity [4] 96% | residual activity [5] 100% | residual activity [6] 100% | residual activity [7] 58% | residual activity [8] 100% | residual activity [9] 99% | residual activity [10] 100% | residual activity [11] 100% | residual activity [12] 91% | residual activity [13] 85% | residual activity [14] 90% | residual activity [15] 54% | residual activity [16] 100% | residual activity [17] 73% | residual activity [18] 89% | residual activity [19] 91% | residual activity [20] 100% | residual activity [21] 100% | residual activity [22] 96% | residual activity [23] 80% | residual activity [24] 100% | residual activity [25] 80% | residual activity [26] 100% | residual activity [27] 100% | residual activity [28] 100% | residual activity [29] 100% | residual activity [30] 94% | residual activity [31] 88% | residual activity [32] 100% | residual activity [33] 100% | residual activity [34] 100% | residual activity [35] 100% | residual activity [36] 100% | residual activity [37] 94% | residual activity [38] 100% | residual activity [39] 86% | residual activity [40] 100% | residual activity [41] 99% | inhibition [42] 14% | inhibition [43] 1.33% | inhibition [44] 15.9% | inhibition [45] 24.4%
